Tests used:
[1] = target: Calcium-dependent protein kinase 1 (Plasmodium falciparum) (UniProt P62344); conditions: Compound concentration 1000.0 nM
[2] = target: T1, Serine/threonine-protein kinase 17A (Homo sapiens) (UniProt Q9UEE5); conditions: Compound concentration 1000.0 nM
T1 sequence (whole entry): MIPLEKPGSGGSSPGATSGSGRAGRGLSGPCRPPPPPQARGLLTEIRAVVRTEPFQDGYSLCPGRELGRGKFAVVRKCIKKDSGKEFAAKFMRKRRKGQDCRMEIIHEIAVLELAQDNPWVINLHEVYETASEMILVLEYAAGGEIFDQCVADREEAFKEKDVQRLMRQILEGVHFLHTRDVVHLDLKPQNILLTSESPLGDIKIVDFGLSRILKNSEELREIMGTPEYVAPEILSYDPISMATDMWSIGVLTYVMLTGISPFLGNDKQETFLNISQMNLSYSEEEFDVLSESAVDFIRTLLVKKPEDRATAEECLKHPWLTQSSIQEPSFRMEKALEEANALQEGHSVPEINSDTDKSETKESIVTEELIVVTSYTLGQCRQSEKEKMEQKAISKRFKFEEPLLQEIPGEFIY

[3] = target: Mitogen-activated protein kinase kinase kinase kinase 4 (Homo sapiens) (UniProt O95819); conditions: Compound concentration 1000.0 nM
Sequence of Mitogen-activated protein kinase kinase kinase kinase 4 (Homo sapiens) (O95819 2-1239 limits assumed): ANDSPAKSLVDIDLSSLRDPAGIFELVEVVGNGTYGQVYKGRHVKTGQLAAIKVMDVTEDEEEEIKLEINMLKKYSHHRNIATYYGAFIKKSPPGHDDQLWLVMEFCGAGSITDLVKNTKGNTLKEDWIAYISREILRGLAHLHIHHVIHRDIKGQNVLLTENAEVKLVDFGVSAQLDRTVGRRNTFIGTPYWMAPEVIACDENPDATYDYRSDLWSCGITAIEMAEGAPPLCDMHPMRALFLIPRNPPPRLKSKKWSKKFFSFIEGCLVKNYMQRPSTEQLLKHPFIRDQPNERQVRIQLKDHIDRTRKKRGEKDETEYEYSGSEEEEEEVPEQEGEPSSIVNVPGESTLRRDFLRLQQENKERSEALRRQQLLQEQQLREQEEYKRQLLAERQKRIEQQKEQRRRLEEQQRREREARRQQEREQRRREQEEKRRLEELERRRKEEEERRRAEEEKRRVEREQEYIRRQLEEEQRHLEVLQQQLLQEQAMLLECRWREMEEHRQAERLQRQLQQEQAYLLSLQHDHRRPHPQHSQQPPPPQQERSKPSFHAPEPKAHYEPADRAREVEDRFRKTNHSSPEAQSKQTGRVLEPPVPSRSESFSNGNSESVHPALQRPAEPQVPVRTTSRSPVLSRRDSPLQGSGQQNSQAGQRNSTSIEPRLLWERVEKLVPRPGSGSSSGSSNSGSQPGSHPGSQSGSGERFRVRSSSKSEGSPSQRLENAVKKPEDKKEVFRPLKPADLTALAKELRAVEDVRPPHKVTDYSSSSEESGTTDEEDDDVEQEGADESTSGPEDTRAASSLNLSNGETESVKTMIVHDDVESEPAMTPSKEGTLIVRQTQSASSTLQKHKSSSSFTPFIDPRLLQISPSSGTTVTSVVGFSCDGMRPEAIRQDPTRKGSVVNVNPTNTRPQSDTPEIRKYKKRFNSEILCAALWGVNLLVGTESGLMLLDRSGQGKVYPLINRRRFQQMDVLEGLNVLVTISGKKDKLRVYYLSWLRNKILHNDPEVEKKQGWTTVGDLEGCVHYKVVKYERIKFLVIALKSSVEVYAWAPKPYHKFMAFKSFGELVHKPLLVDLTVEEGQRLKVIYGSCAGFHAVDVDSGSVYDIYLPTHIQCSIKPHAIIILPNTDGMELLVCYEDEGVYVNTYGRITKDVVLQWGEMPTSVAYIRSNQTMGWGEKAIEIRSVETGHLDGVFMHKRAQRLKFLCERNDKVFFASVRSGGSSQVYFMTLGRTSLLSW

[4] = target: T2, Sigma intracellular receptor 2 (Homo sapiens, UniProt Q5BJF2); conditions: Compound concentration 10.0 uM
T2 sequence (Q5BJF2 whole entry): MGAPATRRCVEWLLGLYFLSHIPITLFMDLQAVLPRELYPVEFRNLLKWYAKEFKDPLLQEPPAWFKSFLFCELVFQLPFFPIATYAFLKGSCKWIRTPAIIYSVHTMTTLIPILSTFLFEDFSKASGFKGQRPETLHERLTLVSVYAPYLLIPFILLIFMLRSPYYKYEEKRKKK

[5] = target: Ribosomal protein S6 kinase alpha-2 (Homo sapiens, UniProt Q15349); conditions: Compound concentration 1000.0 nM
Sequence of Ribosomal protein S6 kinase alpha-2 (Q15349 whole entry): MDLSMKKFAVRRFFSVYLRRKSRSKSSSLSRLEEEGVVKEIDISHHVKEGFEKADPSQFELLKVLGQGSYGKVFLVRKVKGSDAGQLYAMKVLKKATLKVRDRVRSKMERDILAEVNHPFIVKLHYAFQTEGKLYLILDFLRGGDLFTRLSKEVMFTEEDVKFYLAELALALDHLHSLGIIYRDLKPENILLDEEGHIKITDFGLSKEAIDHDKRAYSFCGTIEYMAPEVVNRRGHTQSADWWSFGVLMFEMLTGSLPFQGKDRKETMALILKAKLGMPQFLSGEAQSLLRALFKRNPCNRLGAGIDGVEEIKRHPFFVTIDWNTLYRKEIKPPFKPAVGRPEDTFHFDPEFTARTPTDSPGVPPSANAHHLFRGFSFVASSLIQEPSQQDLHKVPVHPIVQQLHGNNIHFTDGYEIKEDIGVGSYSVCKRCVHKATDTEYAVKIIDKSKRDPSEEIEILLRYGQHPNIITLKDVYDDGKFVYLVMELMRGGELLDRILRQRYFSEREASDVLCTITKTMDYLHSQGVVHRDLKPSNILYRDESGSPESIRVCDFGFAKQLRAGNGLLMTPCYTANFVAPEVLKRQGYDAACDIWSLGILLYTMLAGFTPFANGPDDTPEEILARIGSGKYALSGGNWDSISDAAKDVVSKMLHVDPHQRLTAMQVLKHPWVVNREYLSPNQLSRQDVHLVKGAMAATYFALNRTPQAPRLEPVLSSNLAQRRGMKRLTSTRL

[6] = target: T3, Serine/threonine-protein kinase TBK1 (Homo sapiens) (UniProt Q9UHD2); conditions: Compound concentration 1000.0 nM
T3 sequence (whole entry): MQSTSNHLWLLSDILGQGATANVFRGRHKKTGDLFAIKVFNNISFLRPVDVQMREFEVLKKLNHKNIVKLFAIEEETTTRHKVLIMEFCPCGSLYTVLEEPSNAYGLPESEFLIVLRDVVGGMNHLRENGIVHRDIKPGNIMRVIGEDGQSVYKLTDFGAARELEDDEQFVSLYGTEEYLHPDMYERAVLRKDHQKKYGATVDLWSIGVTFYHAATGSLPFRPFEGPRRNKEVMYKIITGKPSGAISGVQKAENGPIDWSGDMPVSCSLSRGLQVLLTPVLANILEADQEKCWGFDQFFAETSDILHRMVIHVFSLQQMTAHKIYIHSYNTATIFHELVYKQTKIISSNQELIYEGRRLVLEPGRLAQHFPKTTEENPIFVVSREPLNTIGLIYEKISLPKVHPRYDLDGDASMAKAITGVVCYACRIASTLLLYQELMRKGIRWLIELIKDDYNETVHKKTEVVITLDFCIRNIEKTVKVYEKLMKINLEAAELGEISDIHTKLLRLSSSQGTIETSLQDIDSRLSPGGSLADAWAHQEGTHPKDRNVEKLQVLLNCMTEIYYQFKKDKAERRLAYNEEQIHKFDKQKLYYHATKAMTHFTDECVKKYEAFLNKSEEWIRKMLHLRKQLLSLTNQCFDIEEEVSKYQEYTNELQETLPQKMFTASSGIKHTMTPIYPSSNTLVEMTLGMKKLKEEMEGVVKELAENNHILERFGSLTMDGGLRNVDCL

[7] = target: AP2-associated protein kinase 1 (Homo sapiens) (UniProt Q2M2I8); conditions: Compound concentration 1000.0 nM
Sequence of AP2-associated protein kinase 1 (Homo sapiens) (Q2M2I8 whole entry, looked up): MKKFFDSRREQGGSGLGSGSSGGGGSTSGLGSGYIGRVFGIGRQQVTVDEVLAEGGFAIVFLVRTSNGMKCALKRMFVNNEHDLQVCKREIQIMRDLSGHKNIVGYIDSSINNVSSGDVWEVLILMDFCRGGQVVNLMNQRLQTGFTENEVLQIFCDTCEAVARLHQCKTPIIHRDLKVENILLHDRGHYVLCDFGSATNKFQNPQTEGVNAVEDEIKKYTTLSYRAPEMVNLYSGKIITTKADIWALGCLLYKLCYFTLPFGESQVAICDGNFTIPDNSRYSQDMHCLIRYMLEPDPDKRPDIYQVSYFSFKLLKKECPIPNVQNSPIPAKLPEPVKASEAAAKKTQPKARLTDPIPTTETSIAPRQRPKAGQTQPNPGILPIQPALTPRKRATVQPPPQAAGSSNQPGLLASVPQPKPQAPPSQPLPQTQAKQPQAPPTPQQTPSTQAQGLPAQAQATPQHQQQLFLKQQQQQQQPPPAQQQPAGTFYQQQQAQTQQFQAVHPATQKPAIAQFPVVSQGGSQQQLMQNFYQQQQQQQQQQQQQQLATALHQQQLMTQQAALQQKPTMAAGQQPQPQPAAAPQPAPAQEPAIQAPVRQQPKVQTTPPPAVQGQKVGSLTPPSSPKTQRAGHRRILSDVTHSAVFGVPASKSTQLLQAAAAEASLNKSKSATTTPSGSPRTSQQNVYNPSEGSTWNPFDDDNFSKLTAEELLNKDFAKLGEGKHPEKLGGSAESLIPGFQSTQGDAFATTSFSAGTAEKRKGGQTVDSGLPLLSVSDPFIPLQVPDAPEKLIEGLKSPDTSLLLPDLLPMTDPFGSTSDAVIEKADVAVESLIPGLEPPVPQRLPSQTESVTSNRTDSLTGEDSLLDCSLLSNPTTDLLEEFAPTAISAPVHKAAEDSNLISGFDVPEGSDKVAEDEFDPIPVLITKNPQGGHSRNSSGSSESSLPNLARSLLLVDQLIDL

[8] = target: Rho-associated protein kinase 1 (Homo sapiens) (UniProt Q13464); conditions: Compound concentration 1000.0 nM
[9] = target: MAP kinase-interacting serine/threonine-protein kinase 2 (Homo sapiens) (UniProt Q9HBH9); conditions: Compound concentration 1000.0 nM
Sequence of MAP kinase-interacting serine/threonine-protein kinase 2 (Homo sapiens) (Q9HBH9 whole entry, looked up): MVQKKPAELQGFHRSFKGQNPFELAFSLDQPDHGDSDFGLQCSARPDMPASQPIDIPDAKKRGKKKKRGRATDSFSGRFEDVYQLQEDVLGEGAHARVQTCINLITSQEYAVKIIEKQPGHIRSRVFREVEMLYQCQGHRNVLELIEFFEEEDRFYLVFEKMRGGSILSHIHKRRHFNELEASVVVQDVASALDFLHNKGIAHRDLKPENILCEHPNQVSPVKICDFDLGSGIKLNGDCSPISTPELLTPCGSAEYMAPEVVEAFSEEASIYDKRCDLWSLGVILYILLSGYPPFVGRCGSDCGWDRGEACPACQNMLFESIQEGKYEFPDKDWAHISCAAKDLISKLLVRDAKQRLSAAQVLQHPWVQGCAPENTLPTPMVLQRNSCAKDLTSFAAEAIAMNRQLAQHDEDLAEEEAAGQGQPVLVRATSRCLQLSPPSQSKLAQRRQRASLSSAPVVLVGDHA

[10] = target: T4, Serine/threonine-protein kinase Nek1 (Homo sapiens) (UniProt Q96PY6); conditions: Compound concentration 1000.0 nM
T4 sequence (whole entry): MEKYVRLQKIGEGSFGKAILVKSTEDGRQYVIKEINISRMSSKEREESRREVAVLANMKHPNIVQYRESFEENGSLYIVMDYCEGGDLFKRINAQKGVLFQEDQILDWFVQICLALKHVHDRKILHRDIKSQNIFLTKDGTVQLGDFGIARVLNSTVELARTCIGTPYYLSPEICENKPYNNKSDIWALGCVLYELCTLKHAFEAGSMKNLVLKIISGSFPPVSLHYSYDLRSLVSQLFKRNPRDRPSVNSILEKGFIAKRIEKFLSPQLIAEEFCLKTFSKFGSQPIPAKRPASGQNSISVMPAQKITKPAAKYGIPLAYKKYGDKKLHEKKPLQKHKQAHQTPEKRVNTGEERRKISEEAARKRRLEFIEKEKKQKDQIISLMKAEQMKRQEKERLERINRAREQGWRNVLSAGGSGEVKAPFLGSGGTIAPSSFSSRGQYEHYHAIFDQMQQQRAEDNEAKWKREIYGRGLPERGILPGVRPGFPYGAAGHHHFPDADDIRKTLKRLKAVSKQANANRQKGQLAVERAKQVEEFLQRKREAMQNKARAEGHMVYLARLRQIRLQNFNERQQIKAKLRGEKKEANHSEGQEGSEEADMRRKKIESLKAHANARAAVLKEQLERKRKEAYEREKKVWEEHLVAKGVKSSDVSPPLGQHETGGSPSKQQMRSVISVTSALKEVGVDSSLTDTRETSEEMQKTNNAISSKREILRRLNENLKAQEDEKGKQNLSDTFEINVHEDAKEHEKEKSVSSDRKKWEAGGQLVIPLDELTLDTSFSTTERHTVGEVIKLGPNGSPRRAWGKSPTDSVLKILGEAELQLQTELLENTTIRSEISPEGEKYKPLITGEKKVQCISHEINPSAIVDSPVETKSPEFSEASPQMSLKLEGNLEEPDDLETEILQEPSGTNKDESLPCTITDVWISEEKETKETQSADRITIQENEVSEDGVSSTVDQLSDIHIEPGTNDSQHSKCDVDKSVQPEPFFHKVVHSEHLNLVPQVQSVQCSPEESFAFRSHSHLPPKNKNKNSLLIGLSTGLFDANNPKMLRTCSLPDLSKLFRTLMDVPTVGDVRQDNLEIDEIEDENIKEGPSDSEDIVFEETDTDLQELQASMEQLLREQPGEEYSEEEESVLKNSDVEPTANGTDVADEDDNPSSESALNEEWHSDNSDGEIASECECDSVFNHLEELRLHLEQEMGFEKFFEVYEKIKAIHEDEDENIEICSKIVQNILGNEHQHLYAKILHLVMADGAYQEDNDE

[11] = tested on: ALK tyrosine kinase receptor (Homo sapiens), Q9UM73 [C1156Y]; conditions: Compound concentration 1000.0 nM
[12] = target: Dual specificity protein kinase CLK2 (Homo sapiens) (UniProt P49760); conditions: Compound concentration 1000.0 nM
Sequence of Dual specificity protein kinase CLK2 (Homo sapiens) (P49760 whole entry, looked up): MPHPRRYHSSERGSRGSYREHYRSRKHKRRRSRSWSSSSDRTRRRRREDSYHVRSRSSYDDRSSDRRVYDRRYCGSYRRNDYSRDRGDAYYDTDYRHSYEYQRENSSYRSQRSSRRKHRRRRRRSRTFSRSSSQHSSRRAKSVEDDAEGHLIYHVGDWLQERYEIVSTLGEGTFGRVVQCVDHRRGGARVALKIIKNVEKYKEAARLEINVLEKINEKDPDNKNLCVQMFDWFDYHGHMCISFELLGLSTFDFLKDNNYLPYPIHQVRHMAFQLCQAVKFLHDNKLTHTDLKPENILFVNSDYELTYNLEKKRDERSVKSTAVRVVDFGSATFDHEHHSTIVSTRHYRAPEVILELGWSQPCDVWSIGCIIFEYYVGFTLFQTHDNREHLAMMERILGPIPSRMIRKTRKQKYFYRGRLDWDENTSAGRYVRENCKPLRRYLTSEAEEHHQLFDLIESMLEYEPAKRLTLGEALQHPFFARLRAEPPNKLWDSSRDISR

[13] = target: T2, Sigma intracellular receptor 2; experiment: GPCRScan assay: inhibition of Sigma 2; design: radioligand conc. used [nm] 5.0, parental cells HEKT

Sequence of Calcium-dependent protein kinase 1 (Plasmodium falciparum) (P62344 2-524 limits assumed): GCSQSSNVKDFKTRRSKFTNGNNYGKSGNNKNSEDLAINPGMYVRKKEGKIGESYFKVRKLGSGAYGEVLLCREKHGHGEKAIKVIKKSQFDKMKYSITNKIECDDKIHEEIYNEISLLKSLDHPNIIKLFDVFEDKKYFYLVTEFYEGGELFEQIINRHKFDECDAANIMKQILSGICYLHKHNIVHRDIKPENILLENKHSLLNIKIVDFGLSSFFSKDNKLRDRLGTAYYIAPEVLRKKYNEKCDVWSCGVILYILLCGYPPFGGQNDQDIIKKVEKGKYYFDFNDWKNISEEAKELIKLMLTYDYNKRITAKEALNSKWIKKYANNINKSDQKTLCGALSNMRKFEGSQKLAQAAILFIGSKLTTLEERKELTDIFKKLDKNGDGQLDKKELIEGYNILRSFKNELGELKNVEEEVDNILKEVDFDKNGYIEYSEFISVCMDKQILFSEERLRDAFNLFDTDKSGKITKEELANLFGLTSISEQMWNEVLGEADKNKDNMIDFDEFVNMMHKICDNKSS

Compound CCc1ccccc1C(=O)Nc1n[nH]c2c(C)c(F)c(C3C(C#N)=C(C)N(C)C(C)=C3C#N)cc12 [BAY-3827] has a residual activity [1] of 100%, a residual activity [2] of 89% and a residual activity [3] of 100%. For the same compound, the inhibition [4] was 78.3%, the residual activity [5] was 100% and the residual activity [6] was 77%. For the same compound, the residual activity [7] was 81%, the residual activity [8] was 100% and the residual activity [9] was 98%. For the same compound, the residual activity [10] was 100%, the residual activity [11] was 100% and the residual activity [12] was 55%. For the same compound, the Ki [13] was 2.84 µM.
With CC1=C(C#N)C(c2ccc3c(c2)c(NC(=O)c2ccccc2C)nn3C)C(C#N)=C(C)N1 [BAY-974] the residual activity [1] was 98%, the residual activity [2] was 82% and the residual activity [3] was 100%. It also gave an inhibition [4] of 51.2%, a residual activity [5] of 94% and a residual activity [6] of 69%. For the same compound, the residual activity [7] was 90%, the residual activity [8] was 100% and the residual activity [9] was 100%. The residual activity [10] was 100%, the residual activity [11] was 96% and the residual activity [12] was 75%. For the same compound, the Ki [13] was 4.47 µM.

Source: ChEMBL document CHEMBL4507319 (2021)
